Data: PubChem BioAssay AID248 (DTP/NCI, 2004)
Values joined by “and” are separate entries in the source; they are usually repeats but may differ in a detail not shown here. Equal entries are not always repeated. Inconclusive results and toxic doses are left out. Cut-off read from the data, not from the text of the source: active = T/C of 150% or more; inactive = T/C below 125%.

Test system: L1210 leukemia ip in BDF1 mice, survival T/C
Assay: NCI In Vivo Anticancer Drug Screen. Data for tumor model L1210 Leukemia (intraperitoneal) in B6D2F1 (BDF1) mice
Conditions: endpoint: mean survival time, higher = longer survival
Method in brief: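 Transplanted-tumor mice were given test agent; controls received vehicle only. Survival readings from the two groups were divided (treated over control).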

[1] = dose: 100.0 mg/kg/injection, schedule: Q01DX009 (ip), vehicle: saline
[2] = dose: 100.0 mg/kg/injection, schedule: Q04DX003 (ip), vehicle: saline
[3] = dose: 200.0 mg/kg/injection, schedule: Q01DX009 (ip), vehicle: saline
[4] = dose: 200.0 mg/kg/injection, schedule: Q04DX003 (ip), vehicle: saline
[5] = dose: 400.0 mg/kg/injection, schedule: Q01DX009 (ip), vehicle: saline
[6] = dose: 400.0 mg/kg/injection, schedule: Q04DX003 (ip), vehicle: saline
[7] = dose: 100.0 mg/kg/injection, schedule: Q01DX009 (ip), vehicle: saline with Tween-80
[8] = dose: 200.0 mg/kg/injection, schedule: Q01DX009 (ip), vehicle: saline with Tween-80
[9] = dose: 400.0 mg/kg/injection, schedule: Q01DX009 (ip), vehicle: saline with Tween-80
[10] = dose: 100.0 mg/kg/injection, schedule: Q04DX003 (ip), vehicle: saline with Tween-80
[11] = dose: 100.0 mg/kg/injection, schedule: Q01DX001 (ip), vehicle: carboxymethylcellulose (CMC)
[12] = dose: 15.0 mg/kg/injection, schedule: Q01DX Z (ip), vehicle: methylcellulose (MC)
[13] = dose: 30.0 mg/kg/injection, schedule: Q01DX Z (ip), vehicle: methylcellulose (MC)
[14] = dose: 60.0 mg/kg/injection, schedule: Q01DX Z (ip), vehicle: methylcellulose (MC)
[15] = dose: 100.0 mg/kg/injection, schedule: Q04DX002 (ip), vehicle: Klucel (hydroxypropylcellulose) (HPC)
[16] = dose: 200.0 mg/kg/injection, schedule: Q04DX002 (ip), vehicle: Klucel (hydroxypropylcellulose) (HPC)
[17] = dose: 400.0 mg/kg/injection, schedule: Q04DX002 (ip), vehicle: Klucel (hydroxypropylcellulose) (HPC)
[18] = dose: 100.0 mg/kg/injection, schedule: Q01DX001 (ip), vehicle: saline
[19] = dose: 200.0 mg/kg/injection, schedule: Q01DX001 (ip), vehicle: saline

Measured: T/C

COc1ccc(/C=C2/COC/C(=C/c3ccc(OC)c(OC)c3)C2=O)cc1OC
inactive: [1] 98 % of control | [2] 101 % of control | [3] 93 % of control | [4] 95 % of control | [5] 90 % of control | [6] 93 % of control

CCOC(=O)C(N)C(C)(C)S (configuration not stated)
inactive: [1] 94 % of control | [2] 96 % of control | [3] 103 % of control | [4] 102 % of control | [5] 100 % of control | [6] 103 % of control

C/C=C\c1ccc(OCCOC(=O)Nc2ccc(Cl)cc2C(F)(F)F)c(OC)c1
inactive: [7] 91 % of control | [8] 96 % of control | [9] 89 % of control

C[N+](C)(C)/N=C\C1CC=CCC1 (configuration not stated)
inactive: dose: 12.5 mg/kg/injection, schedule: Q01DX009 (ip), vehicle: saline 99 % of control | dose: 25.0 mg/kg/injection, schedule: Q01DX009 (ip), vehicle: saline 96 % of control | dose: 50.0 mg/kg/injection, schedule: Q01DX009 (ip), vehicle: saline 99 % of control and 105 % of control

OCC1CCN1C(c1ccccc1)c1ccccc1 (configuration not stated)
inactive: dose: 100.0 mg/kg/injection, schedule: Q04DX002 (ip), vehicle: saline with Tween-80 93 % of control | dose: 200.0 mg/kg/injection, schedule: Q04DX002 (ip), vehicle: saline with Tween-80 86 % of control

CC(C)CC(N)C(=O)OCc1ccccc1 (configuration not stated)
inactive: [1] 105 % of control | [2] 97 % of control | [3] 107 % of control | [4] 101 % of control | [5] 98 % of control | [6] 97 % of control

O=C1c2ccccc2-c2ccccc21
inactive: [7] 88 % of control | [10] 102 % of control | [8] 93 % of control | dose: 200.0 mg/kg/injection, schedule: Q04DX003 (ip), vehicle: saline with Tween-80 102 % of control | [9] 88 % of control | dose: 400.0 mg/kg/injection, schedule: Q04DX003 (ip), vehicle: saline with Tween-80 105 % of control

O=[N+]([O-])c1cc(O)cc(F)c1
inactive: [11] 100 % of control

NC(N)=N/N=C(\c1ccc(Cl)cc1)C1CC1
inactive: [12] 101 % of control | [13] 95 % of control | dose: 30.0 mg/kg/injection, schedule: Q01DX Z (oral), vehicle: methylcellulose (MC) 92 % of control | [14] 98 % of control | dose: 60.0 mg/kg/injection, schedule: Q01DX Z (oral), vehicle: methylcellulose (MC) 93 % of control | dose: 240.0 mg/kg/injection, schedule: Q01DX Z (oral), vehicle: methylcellulose (MC) 95 % of control | dose: 375.0 mg/kg/injection, schedule: Q01DX Z (oral), vehicle: methylcellulose (MC) 92 % of control | dose: 500.0 mg/kg/injection, schedule: Q01DX Z (oral), vehicle: methylcellulose (MC) 88 % of control

O=C1C=C(c2ccccc2)C(=O)O1
inactive: [15] 95 % of control | [16] 92 % of control | [17] 90 % of control

NC(=S)N/N=C/c1ccc(O)c(C(=O)O)c1
inactive: [12] 97 % of control | [13] 95 % of control | [14] 95 % of control | dose: 120.0 mg/kg/injection, schedule: Q01DX Z (ip), vehicle: methylcellulose (MC) 97 % of control | dose: 250.0 mg/kg/injection, schedule: Q01DX Z (ip), vehicle: methylcellulose (MC) 91 % of control | dose: 375.0 mg/kg/injection, schedule: Q01DX Z (ip), vehicle: methylcellulose (MC) 89 % of control

CC1C(C(N)=O)C(=O)OC1(C)C (configuration not stated)
inactive: [18] 89 % of control | [19] 104 % of control | dose: 400.0 mg/kg/injection, schedule: Q01DX001 (ip), vehicle: saline 98 % of control

COC1=CC23CCNC(Cc4ccc(OC)c(O)c42)C3=CC1 (configuration not stated)
inactive: dose: 10.0 mg/kg/injection, schedule: Q01DX001 (ip), vehicle: saline 101 % of control

Fc1cc(N(CCCl)CCCl)ccc1CN1CCCN(Cc2ccc(N(CCCl)CCCl)cc2F)C1c1ccc(N(CCCl)CCCl)cc1F
inactive: dose: 50.0 mg/kg/injection, schedule: Q01DX001 (ip), vehicle: carboxymethylcellulose (CMC) 100 % of control | [11] 96 % of control | dose: 200.0 mg/kg/injection, schedule: Q01DX001 (ip), vehicle: carboxymethylcellulose (CMC) 102 % of control | dose: 400.0 mg/kg/injection, schedule: Q01DX001 (ip), vehicle: carboxymethylcellulose (CMC) 94 % of control

CCOC(=O)C(C(=O)O)C(=O)CCO (configuration not stated)
inactive: [18] 98 % of control | [19] 94 % of control

CSc1ncnc2c1ncn2N(CCCl)C(C)=O
inactive: dose: 25.0 mg/kg/injection, schedule: Q01DX001 (ip), vehicle: other 96 % of control | dose: 25.0 mg/kg/injection, schedule: Q01DX009 (ip), vehicle: other 101 % of control | dose: 25.0 mg/kg/injection, schedule: Q04DX003 (ip), vehicle: other 100 % of control | dose: 50.0 mg/kg/injection, schedule: Q01DX001 (ip), vehicle: other 98 % of control | dose: 50.0 mg/kg/injection, schedule: Q01DX009 (ip), vehicle: other 105 % of control | dose: 50.0 mg/kg/injection, schedule: Q04DX003 (ip), vehicle: other 103 % of control | dose: 100.0 mg/kg/injection, schedule: Q01DX001 (ip), vehicle: other 96 % of control and 105 % of control | dose: 100.0 mg/kg/injection, schedule: Q01DX009 (ip), vehicle: other 97 % of control | dose: 100.0 mg/kg/injection, schedule: Q04DX003 (ip), vehicle: other 102 % of control

N=C(N)SCCN1C(=O)c2ccccc2C1=O
inactive: [10] 103 % of control

CC(NC(=O)OCc1ccccc1)C(=O)NCCC(N)=O (configuration not stated)
inactive: [7] 91 % of control | [8] 88 % of control

CC1CC(=O)NC1=O (configuration not stated)
inactive: [2] 115 % of control | [4] 116 % of control | [6] 112 % of control

O=C(Nc1cccc2ccccc12)Oc1ccc(C2CCCCC2)cc1
inactive: dose: 100.0 mg/kg/injection, schedule: Q01DX009 (ip), vehicle: carboxymethylcellulose (CMC) 97 % of control and 90 % of control | [15] 89 % of control | dose: 100.0 mg/kg/injection, schedule: Q04DX002 (ip), vehicle: carboxymethylcellulose (CMC) 100 % of control and 101 % of control | dose: 100.0 mg/kg/injection, schedule: Q04DX003 (ip), vehicle: carboxymethylcellulose (CMC) 101 % of control | dose: 200.0 mg/kg/injection, schedule: Q01DX009 (ip), vehicle: carboxymethylcellulose (CMC) 87 % of control and 92 % of control | [16] 96 % of control | dose: 200.0 mg/kg/injection, schedule: Q04DX002 (ip), vehicle: carboxymethylcellulose (CMC) 101 % of control and 90 % of control | dose: 200.0 mg/kg/injection, schedule: Q04DX003 (ip), vehicle: carboxymethylcellulose (CMC) 100 % of control | dose: 400.0 mg/kg/injection, schedule: Q01DX009 (ip), vehicle: carboxymethylcellulose (CMC) 97 % of control and 90 % of control | [17] 101 % of control | dose: 400.0 mg/kg/injection, schedule: Q04DX002 (ip), vehicle: carboxymethylcellulose (CMC) 95 % of control and 90 % of control | dose: 400.0 mg/kg/injection, schedule: Q04DX003 (ip), vehicle: carboxymethylcellulose (CMC) 92 % of control
